# Literature values in patent US20050107350A1, “Method for the treatment or prevention of bone disorders with a cyclooxygenase-2 inhibitor alone and in combination with a bone disorder treatment agent and compositions therewith” (Pharmacia Corporation, priority 2003, published 2005).
# Structures can show the parent of a compound that is named as a salt.
# Columns and labels:
# rats = conditions: rat, in vivo
# patients = conditions: human, in vivo
# osteoporosis patients [1] = test system: osteoporosis patients
# osteoporosis patients [2] = conditions: human, in vivo
molecule,measurement,setting,value
"PTH: parathyroid hormone, the only anabolic agent currently available",bone tumors,rats,increase in bone tumors
same,common side effects,patients,"nausea, headaches, and leg cramps"
same,increase of BMD in the spine,"osteoporosis patients [1]; Neer et al., NEJM 2001",≤ 13%
"O=C(c1ccc(OCCN2CCCCC2)cc1)c1c(-c2ccc(O)cc2)sc2cc(O)ccc12 [raloxifene, Methanone, [6-hydroxy-2-(4-hydroxyphenyl)benzo[b]thien-3-yl] - [4-[2-(1-piperidinyl)ethoxy]phenyl]-, hydrochloride]",common side effects,patients,leg cramps and hot flashes
same,effect on risk of breast cancer,patients,significantly decreases the risk of breast cancer
same,increase of BMD of the lumbar spine and hip,osteoporosis patients [1]; over 2-3 years of treatment,2-3%
same,decrease of vertebral fractures,osteoporosis patients [2],50%
CC(C)C[C@H](NC(=O)[C@H](CCCCN)NC(=O)CNC(=O)[C@H](CC(C)C)NC(=O)[C@@H](NC(=O)[C@@H]1CSSC[C@H](N)C(=O)N[C@@H](CO)C(=O)N[C@@H](CC(N)=O)C(=O)N[C@@H](CC(C)C)C(=O)N[C@@H](CO)C(=O)N[C@@H]([C@@H](C)O)C(=O)N1)C(C)C)C(=O)N[C@@H](CO)C(=O)N[C@@H](CCC(N)=O)C(=O)N[C@@H](CCC(=O)O)C(=O)N[C@@H](CC(C)C)C(=O)N[C@@H](Cc1c[nH]cn1)C(=O)N[C@@H](CCCCN)C(=O)N[C@@H](CC(C)C)C(=O)N[C@@H](CCC(N)=O)C(=O)N[C@H](C(=O)N[C@@H](Cc1ccc(O)cc1)C(=O)N1CCC[C@H]1C(=O)N[C@@H](CCCNC(=N)N)C(=O)N[C@H](C(=O)N[C@@H](CC(N)=O)C(=O)N[C@H](C(=O)NCC(=O)N[C@@H](CO)C(=O)NCC(=O)N[C@H](C(=O)N1CCC[C@H]1C(N)=O)[C@@H](C)O)[C@@H](C)O)[C@@H](C)O)[C@@H](C)O [calcitonin],common side effects,patients,"flushing, nausea, vomiting, and diarrhea"
same,improvement of BMD,"osteoporosis patients [1]; intranasal, after 2 years of treatment",1-2%
"NCCCC(O)(P(=O)(O)O)P(=O)(O)O [alendronate, 4-amino-1-hydroxybulylidene bisphophonic acid]",common side effects,patients,can irritate the lining of the upper gastrointestinal tract
same,average improvement of patient's BMD,osteoporosis patients [1]; after three years of treatment,8%
same,patients treated who show an increase in BMD at the lumbar spine,osteoporosis patients [1]; lumbar spine,≤ 95%
